In brackets after ≈: the same amount, converted by molar mass. Where two headings read alike, the source gives them in different places.
Key:
53 CRE and CPE strains = assay: MICrange, MIC50, MIC80, MIC90 for 53 bacterial isolates (Example 5, Table 5); assay type: cell-based
Enterobacterales = assay: MIC, broth microdilution, CDC/FDA Antibiotic Resistance Isolate Bank (Example 7, Tables 8, 11, 12); assay type: cell-based; conditions: for MIC50: read-out: MIC50; for MIC90: read-out: MIC90; for MIC: read-out: MIC
A. baumannii = assay: MIC, broth microdilution, CDC/FDA Antibiotic Resistance Isolate Bank (Example 7, Tables 9, 13, 14); assay type: cell-based, Acinetobacter baumannii; conditions: for MIC: read-out: MIC
[1] = 154 strains of Enterobacterales
[2] = carbapenemase-producing Enterobacterales, Metallo-β-lactamase (N = 47)
[3] = carbapenemase-producing Enterobacterales, Serine carbapenemase (N=61)

CN(C)c1cc(NC(=O)CNC(C)(C)C)c(O)c2c1C[C@H]1C[C@H]3[C@H](N(C)C)C(O)=C(C(N)=O)C(=O)[C@@]3(O)C(O)=C1C2=O [Tigecycline, tigecycline]
MIC90 (53 CRE and CPE strains; 53 CRE and CPE strains, read-out: MIC90): 2 µg/mL (≈ 3.41 µM)
MIC90 (53 CRE and CPE strains; 53 bacterial isolates): 2 µg/mL (≈ 3.41 µM)
MICrange (53 CRE and CPE strains; 53 bacterial isolates): 0.12 to 16 µg/mL
MIC50 (53 CRE and CPE strains; 53 bacterial isolates, read-out: MIC50): 0.5 µg/mL (≈ 0.854 µM)
MIC80 (53 CRE and CPE strains; 53 bacterial isolates, read-out: MIC80): 1 µg/mL (≈ 1.71 µM)
MICrange (Enterobacterales; [1]): 0.12 to 4 µg/mL
MIC50 (Enterobacterales; [1]): 0.5 µg/mL (≈ 0.854 µM)
MIC80 (Enterobacterales; 154 strains of Enterobacterales, read-out: MIC80): 1 µg/mL (≈ 1.71 µM)
MIC90 (Enterobacterales; [1]): 2 µg/mL (≈ 3.41 µM)
MIC (Enterobacterales; Enterobacter cloacae, Enterobacter cloacae complex, KUB No. 5661, AR Bank # 164): 0.5 µg/mL (≈ 0.854 µM)
MIC (Enterobacterales; Enterobacter cloacae, KUB No. 5660, AR Bank # 163): 4 µg/mL (≈ 6.83 µM)
MIC (Enterobacterales; Enterobacter cloacae, KUB No. 5761, AR Bank # 365): 2 µg/mL (≈ 3.41 µM)
MIC (Enterobacterales; Enterobacter cloacae, KUB No. 5762, AR Bank # 366): 2 µg/mL (≈ 3.41 µM)
MIC (Enterobacterales; Enterobacter cloacae, KUB No. 5763, AR Bank # 367): 0.5 µg/mL (≈ 0.854 µM)
MIC (Enterobacterales; Enterobacter cloacae, KUB No. 5778, AR Bank # 432): 1 µg/mL (≈ 1.71 µM)
MIC (Enterobacterales; Escherichia coli, KUB No. 5764, AR Bank # 368): 0.25 µg/mL (≈ 0.427 µM)
MIC (Enterobacterales; Escherichia coli, KUB No. 5765, AR Bank # 369): 0.25 µg/mL (≈ 0.427 µM)
MIC (Enterobacterales; Escherichia coli, KUB No. 5766, AR Bank # 370): 0.25 µg/mL (≈ 0.427 µM)
MIC (Enterobacterales; Escherichia coli, KUB No. 5767, AR Bank # 371): 0.25 µg/mL (≈ 0.427 µM)
MIC (Enterobacterales; Escherichia coli, KUB No. 5768, AR Bank # 372): 0.5 µg/mL (≈ 0.854 µM)
MIC (Enterobacterales; Escherichia coli, KUB No. 5769, AR Bank # 373): 0.5 µg/mL (≈ 0.854 µM)
MIC (Enterobacterales; Escherichia coli, KUB No. 5770, AR Bank # 374): 0.5 µg/mL (≈ 0.854 µM)
MIC (Enterobacterales; Escherichia coli, KUB No. 5774, AR Bank # 378): 0.25 µg/mL (≈ 0.427 µM)
MIC (Enterobacterales; Escherichia coli, KUB No. 5779, AR Bank # 433): 0.5 µg/mL (≈ 0.854 µM)
MIC (Enterobacterales; Escherichia coli, KUB No. 5780, AR Bank # 434): 0.5 µg/mL (≈ 0.854 µM)
MIC (Enterobacterales; Escherichia coli, KUB No. 5781, AR Bank # 435): 0.5 µg/mL (≈ 0.854 µM)
MIC (Enterobacterales; Escherichia, KUB No. 57, AR Bank # 436 (row cut off)): 0.5 µg/mL (≈ 0.854 µM)
MIC (Enterobacterales; Klebsiella aerogenes, Enterobacter aerogenes, KUB No. 5777, AR Bank # 431): 1 µg/mL (≈ 1.71 µM)
MIC (Enterobacterales; Klebsiella oxytoca, KUB No. 5771, AR Bank # 375): 0.5 µg/mL (≈ 0.854 µM)
MIC (Enterobacterales; Klebsiella oxytoca, KUB No. 5776, AR Bank # 380): 2 µg/mL (≈ 3.41 µM)
MIC (Enterobacterales; Klebsiella pnemnonine, KUB No. 5758, AR Bank # 362): 1 µg/mL (≈ 1.71 µM)
MIC (Enterobacterales; Klebsiella pneumoniae, KUB No. 5757, AR Bank # 361): 1 µg/mL (≈ 1.71 µM)
MIC (Enterobacterales; Klebsiella pneumoniae, KUB No. 5759, AR Bank # 363): 0.5 µg/mL (≈ 0.854 µM)
MIC (Enterobacterales; Klebsiella pneumoniae, KUB No. 5760, AR Bank # 364): 1 µg/mL (≈ 1.71 µM)
MIC (Enterobacterales; Klebsiella pneumoniae, KUB No. 5772, AR Bank # 376): 1 µg/mL (≈ 1.71 µM)
MIC (Enterobacterales; Proteus mirabilis, KUB No. 5773, AR Bank # 377): 4 µg/mL (≈ 6.83 µM)
MIC (Enterobacterales; Proteus mirabilis, KUB No. 5775, AR Bank # 379): 0.5 µg/mL (≈ 0.854 µM)
MIC50 (Enterobacterales; [2]): 0.5 µg/mL (≈ 0.854 µM)
MIC90 (Enterobacterales; [2]): 2 µg/mL (≈ 3.41 µM)
MIC50 (Enterobacterales; [3]): 1 µg/mL (≈ 1.71 µM)
MIC90 (Enterobacterales; [3]): 2 µg/mL (≈ 3.41 µM)
MIC90 (Enterobacterales; metallo-β-lactamase-producing strains of Enterobacterales): 2 µg/mL (≈ 3.41 µM)
MICrange (A. baumannii; 55 isolates of A. baumannii): 0.25 to 2 µg/mL
MIC (A. baumannii; Acinetobacter baumannii, A. baumannii KUB No. 5567, AR Bank #70, OXA-58, OXA-100): 0.25 µg/mL (≈ 0.427 µM)
MIC (A. baumannii; Acinetobacter baumannii, A. baumannii KUB No. 5575, AR Bank #78, OXA-71): 2 µg/mL (≈ 3.41 µM)
MIC (A. baumannii; Acinetobacter baumannii, A. baumannii KUB No. 5580, AR Bank #83, OXA-23, OXA-69, NDM-1): 0.5 µg/mL (≈ 0.854 µM)
MIC (A. baumannii; Acinetobacter baumannii, A. baumannii KUB No. 5585, AR Bank #88, OXA-64, NDM-1): 0.25 µg/mL (≈ 0.427 µM)
MIC (A. baumannii; Acinetobacter baumannii, A. baumannii KUB No. 5598, AR Bank #101, OXA-24, OXA-65): 1 µg/mL (≈ 1.71 µM)
MIC (A. baumannii; Acinetobacter baumannii, A. baumannii KUB No. 5599, AR Bank #102, OXA-66): 1 µg/mL (≈ 1.71 µM)
MIC (A. baumannii; Acinetobacter baumannii, A. baumannii KUB No. 5706, AR Bank #273, OXA-23, OXA-66): 0.5 µg/mL (≈ 0.854 µM)
MIC (A. baumannii; Acinetobacter baumannii, A. baumannii KUB No. 5707, AR Bank #274, OXA-66, OXA-72): 1 µg/mL (≈ 1.71 µM)
MIC (A. baumannii; Acinetobacter baumannii, A. baumannii KUB No. 5708, AR Bank #275, OXA-23, OXA-66): 0.5 µg/mL (≈ 0.854 µM)
MIC (A. baumannii; Acinetobacter baumannii, A. baumannii KUB No. 5709, AR Bank #276, no carbapenemase genes (-)): 1 µg/mL (≈ 1.71 µM)
MIC (A. baumannii; Acinetobacter baumannii, A. baumannii KUB No. 5710, AR Bank #277, OXA-24, OXA-65): 1 µg/mL (≈ 1.71 µM)
MIC (A. baumannii; Acinetobacter baumannii, A. baumannii KUB No. 5711, AR Bank #278, OXA-23, OXA-66): 0.5 µg/mL (≈ 0.854 µM)
MIC (A. baumannii; Acinetobacter baumannii, A. baumannii KUB No. 5712, AR Bank #279, OXA-23, OXA-66): 0.5 µg/mL (≈ 0.854 µM)
MIC (A. baumannii; Acinetobacter baumannii, A. baumannii KUB No. 5713, AR Bank #280, OXA-66): 1 µg/mL (≈ 1.71 µM)
MIC (A. baumannii; Acinetobacter baumannii, A. baumannii KUB No. 5714, AR Bank #281, OXA-82): 2 µg/mL (≈ 3.41 µM)
MIC (A. baumannii; Acinetobacter baumannii, A. baumannii KUB No. 5715, AR Bank #282, OXA-23, OXA-66): 0.5 µg/mL (≈ 0.854 µM)
MIC (A. baumannii; Acinetobacter baumannii, A. baumannii KUB No. 5716, AR Bank #283, OXA-23, OXA-66): 1 µg/mL (≈ 1.71 µM)
MIC (A. baumannii; Acinetobacter baumannii, A. baumannii KUB No. 5717, AR Bank #284, OXA-24, OXA-65): 0.5 µg/mL (≈ 0.854 µM)
MIC (A. baumannii; Acinetobacter baumannii, A. baumannii KUB No. 5718, AR Bank #285, OXA-24, OXA-65): 0.5 µg/mL (≈ 0.854 µM)
MIC (A. baumannii; Acinetobacter baumannii, KUB No. 5719, AR Bank #286): 1 µg/mL (≈ 1.71 µM)
MIC (A. baumannii; Acinetobacter baumannii, KUB No. 5720, AR Bank #287): 0.5 µg/mL (≈ 0.854 µM)
MIC (A. baumannii; Acinetobacter baumannii, KUB No. 5721, AR Bank #288): 2 µg/mL (≈ 3.41 µM)
MIC (A. baumannii; Acinetobacter baumannii, KUB No. 5722, AR Bank #259): 1 µg/mL (≈ 1.71 µM)
MIC (A. baumannii; Acinetobacter baumannii, KUB No. 5723, AR Bank #290): 0.5 µg/mL (≈ 0.854 µM)
MIC (A. baumannii; Acinetobacter baumannii, KUB No. 5724, AR Bank #291): 1 µg/mL (≈ 1.71 µM)
MIC (A. baumannii; Acinetobacter baumannii, KUB No. 5725, AR Bank #292): 0.25 µg/mL (≈ 0.427 µM)
MIC (A. baumannii; Acinetobacter baumannii, KUB No. 5726, AR Bank #293): 2 µg/mL (≈ 3.41 µM)
MIC (A. baumannii; Acinetobacter baumannii, KUB No. 5727, AR Bank #294): 0.5 µg/mL (≈ 0.854 µM)
MIC (A. baumannii; Acinetobacter baumannii, KUB No. 5728, AR Bank #295): 1 µg/mL (≈ 1.71 µM)
MIC (A. baumannii; Acinetobacter baumannii, KUB No. 5729, AR Bank #296): 1 µg/mL (≈ 1.71 µM)
MIC (A. baumannii; Acinetobacter baumannii, KUB No. 5730, AR Bank #297): 2 µg/mL (≈ 3.41 µM)
MIC (A. baumannii; Acinetobacter baumannii, KUB No. 5731, AR Bank #298): 0.5 µg/mL (≈ 0.854 µM)
MIC (A. baumannii; Acinetobacter baumannii, KUB No. 5732, AR Bank #299): 1 µg/mL (≈ 1.71 µM)
MIC (A. baumannii; Acinetobacter baumannii, KUB No. 5733, AR Bank #300): 0.5 µg/mL (≈ 0.854 µM)
MIC (A. baumannii; Acinetobacter baumannii, KUB No. 5734, AR Bank #301): 1 µg/mL (≈ 1.71 µM)
MIC (A. baumannii; Acinetobacter baumannii, KUB No. 5735, AR Bank #302): 1 µg/mL (≈ 1.71 µM)
MIC (A. baumannii; Acinetobacter baumannii, KUB No. 5736, AR Bank #303): 1 µg/mL (≈ 1.71 µM)
MIC (A. baumannii; Acinetobacter baumannii, KUB No. 5737, AR Bank #304): 1 µg/mL (≈ 1.71 µM)
MIC (A. baumannii; Acinetobacter baumannii, KUB No. 5738, AR Bank #305): 0.25 µg/mL (≈ 0.427 µM)
MIC (A. baumannii; Acinetobacter baumannii, KUB No. 5739, AR Bank #306): 1 µg/mL (≈ 1.71 µM)
MIC (A. baumannii; Acinetobacter baumannii, KUB No. 5740, AR Bank #307): 1 µg/mL (≈ 1.71 µM)
MIC (A. baumannii; Acinetobacter baumannii, KUB No. 5741, AR Bank #308): 0.5 µg/mL (≈ 0.854 µM)
MIC (A. baumannii; Acinetobacter baumannii, KUB No. 5742, AR Bank #309): 0.5 µg/mL (≈ 0.854 µM)
MIC (A. baumannii; Acinetobacter baumannii, KUB No. 5743, AR Bank #310): 1 µg/mL (≈ 1.71 µM)
MIC (A. baumannii; Acinetobacter baumannii, KUB No. 5744, AR Bank #311): 0.5 µg/mL (≈ 0.854 µM)
MIC (A. baumannii; Acinetobacter baumannii, KUB No. 5745, AR Bank #312): 0.25 µg/mL (≈ 0.427 µM)
MIC (A. baumannii; Acinetobacter baumannii, KUB No. 5746, AR Bank #313): 0.5 µg/mL (≈ 0.854 µM)
MIC50 (A. baumannii; Acinetobacter baumannii, 55 isolates of A. baumannii, read-out: MIC50): 1 µg/mL (≈ 1.71 µM)
MIC80 (A. baumannii; Acinetobacter baumannii, 55 isolates of A. baumannii, read-out: MIC80): 1 µg/mL (≈ 1.71 µM)
MIC90 (A. baumannii; Acinetobacter baumannii, 55 isolates of A. baumannii, read-out: MIC90): 1 µg/mL (≈ 1.71 µM)
Number of isolates at MIC ≤[…] (A. baumannii; MIC distribution, metallo-β-lactamase-producing A. baumannii, inhibitor µg/mL in parentheses): 3
